Experiments:
[1] = compared with the ibuprofen molecule; cited from earlier work
[2] = compared with ibuprofen, equimolar doses; cited from earlier work
[3] = Partition coefficient (log P) study, chloroform / buffer, HPLC; type: physicochemical; settings: 37°C, 24 hours
Method: 20 mg of amide compound is dissolved in 20 ml of chloroform. 10 mL of this mixture is drawn out (divided into two). This 10 ml of mixture is added to 20 ml with pH 1.2 buffer solution. Likewise the other 10 ml of mixture is added to 20 ml with pH 6.8 buffer solution. The tubes placed in a 37°C incubator are mixed for 24 hours.
After 24 hours the chloroform phase was removed and transferred to separate tubes. The chloroform is evaporated. After evaporation of chloroform, 10 mL of ACN is added and thoroughly mixed. 0.1 ml of the sample is taken out of the mixture with ACN and this sample is added to 10 ml with the mobile phase (S1, S2, S3) (Cn=1ug/ml)
The standard samples used in this study were prepared according to the method of preparation of standard samples given above.
• HPLC Column Type: ACE C18 reverse phase. • Flow Rate: 1 ml/min. • Wavelength: 210 nm

[4] = pH 1.2 buffer solution / chloroform
[5] = pH 6.8 buffer solution / chloroform

COc1ccccc1OC(=O)C(C)c1ccc(CC(C)C)cc1 (centres unmarked) [guiacol ester of ibuprofen]
gastrointestinal and acute toxicities [1]: much lower
effect in relieving edema and in lowering fever [2]: same effect

C[C@H](C(=O)NC(CO)(CO)CO)c1cccc(C(=O)c2ccccc2)c1 [Compound 1b, (+)-(2S)-2-(3-Benzoylphenyl)-N-[1,3-dihydroxy-2-(hydroxymethyl)propan-2-yl]propanamide]
Log P (Experimental result) [3, 4]: -0.05
Log P (Experimental result) [3, 5]: +0.05

CC(C(=O)NC(CO)(CO)CO)c1ccc(-c2ccccc2)c(F)c1 (centres unmarked) [Compound 3b, N-[1,3-Dihydroxy-2-(hydroxymethyl)propan-2-yl]-2-(2-fluorobiphenyl-4-yl)propanamide]
Log P (Experimental result) [3, 4]: -0.14
Log P (Experimental result) [3, 5]: -0.95

CC(C)Cc1ccc(C(C)C(=O)NC(CO)(CO)CO)cc1 (centres unmarked) [Compound 2b, N-[1,3-dihydroxy-2-(hydroxmethyl)propan-2-yl]-2-(4-isobutylphenyl)propanamide]
Log P (Experimental result) [3, 4]: -0.12
Log P (Experimental result) [3, 5]: -0.41

— patent EP2878592B1, “SYNTHESIS OF AMIDE DERIVATIVES OF SOME NONSTEROIDAL ANTIINFLAMMATORY DRUGS AS POTENTIAL PRO-DRUGS” (Kücükgüzel, Ilkay, priority 2013, dated 2015)
